In US20240246967A1, “AXL COMPOUNDS” (ARCUS BIOSCIENCES, INC., priority 2021, published 2024):

Target: T1, Axl (Homo sapiens, UniProt P30530)
T1 sequence (P30530 26-894): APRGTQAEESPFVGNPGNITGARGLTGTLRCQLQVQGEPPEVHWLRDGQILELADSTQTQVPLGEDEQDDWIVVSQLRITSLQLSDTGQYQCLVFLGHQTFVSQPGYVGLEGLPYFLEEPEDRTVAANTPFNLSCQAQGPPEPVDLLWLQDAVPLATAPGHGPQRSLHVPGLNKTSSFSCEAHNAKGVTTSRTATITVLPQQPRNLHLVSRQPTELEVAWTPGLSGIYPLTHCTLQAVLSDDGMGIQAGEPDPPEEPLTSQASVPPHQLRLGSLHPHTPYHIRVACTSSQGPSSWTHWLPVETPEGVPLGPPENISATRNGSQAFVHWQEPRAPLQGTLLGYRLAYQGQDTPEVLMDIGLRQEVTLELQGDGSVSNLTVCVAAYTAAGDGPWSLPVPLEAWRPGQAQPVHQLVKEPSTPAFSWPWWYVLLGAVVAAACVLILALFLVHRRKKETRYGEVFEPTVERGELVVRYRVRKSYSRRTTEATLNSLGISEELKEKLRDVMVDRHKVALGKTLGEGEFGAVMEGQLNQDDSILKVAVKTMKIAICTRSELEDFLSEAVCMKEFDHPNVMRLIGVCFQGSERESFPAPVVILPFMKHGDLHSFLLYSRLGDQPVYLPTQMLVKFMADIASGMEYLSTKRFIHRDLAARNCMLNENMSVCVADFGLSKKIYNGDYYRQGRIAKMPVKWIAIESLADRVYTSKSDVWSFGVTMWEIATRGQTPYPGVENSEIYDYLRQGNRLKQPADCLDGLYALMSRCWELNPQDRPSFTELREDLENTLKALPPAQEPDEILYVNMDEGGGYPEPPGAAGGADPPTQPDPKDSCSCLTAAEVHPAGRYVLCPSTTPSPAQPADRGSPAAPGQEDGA
Test: HTRF KinEASE-TK biochemical potency assay, AXL
Set-up: purchased Invitrogen
Conditions: 5 nM AXL, 700 μM ATP, 800 nM TK Substrate-biotin
Experimental: Purified recombinant human AXL, TYRO3 and MER proteins were purchased from Invitrogen™. 10 nM AXL, 2 nM TYRO3 or MER were incubated with varying concentrations of compounds in 50 mM HEPES, pH 7.4, 10 mM MgCl2, 0.01% BSA, 1 mM DTT and 2% DMSO in a total volume of 20 μl in a 384-well microplate (Corning™ #3640) at RT for 1 h. The AXL, TYRO3 and MER enzymatic reaction was initiated by transferring 10 μl of enzyme and compound mixture into 10 μl of 1.6 μM TK Substrate-biotin (HTRF® KinEASE-TK kit, Cisbio) and 1400 μM ATP pre-incubated in 50 mM HEPES, pH 7.4, 10 mM MgCl2, 0.01% BSA, 1 mM DTT in a 384-well microplate (Corning™ #3640) at RT, giving the final reaction conditions: 5 nM AXL, 1 nM TYRO3 or MER, 800 nM TK Substrate-biotin and 700 μM ATP in 50 mM HEPES, pH 7.4, 10 mM MgCl2, 0.01% BSA, 1 mM DTT and 1% DMSO with varying concentrations of compounds. Following 2 h incubation at RT, the AXL, TYRO3 and MER enzymatic reaction was stopped by transfer of 10 μl of reaction into 10 μl of detection mix (400 nM Streptavidin-XL665, 200-fold dilution TK Antibody-Cryptate and detection buffer, HTRF® KinEASE-TK kit, Cisbio) in a white 384-well microplate (Perkin Elmer, OptiPlate 384). After 1 h incubation at RT, the plate was put into a plate reader (Evision) to read at 665/620 nm (acceptor/donor) for HTRF. The value of the DMSO blank (MIN inhibition=100% activity) was used as a negative control. The positive control was established by adding 5 μl of enzyme and DMSO mixture into 10 μl of detection mix followed by addition of 5 μl of TK Substrate-biotin and ATP mixture (MAX inhibition=0% activity). To calculate the percent activity, Equation 1 was used. Ratio 665/620 is the value at a given compound concentration: […]

IC50, < 100 nM:
CS(=O)(=O)c1ccc(-c2n[nH]c3ncc(-c4ccc5c(c4)CCN(C4CCCC4)CC5)cc23)cc1Cl [Example 31, 7-(3-(3-Chloro-4-(methylsulfonyl)phenyl)-1H-pyrazolo[3,4-b]pyridin-5-yl)-3-cyclopentyl-2,3,4,5-tetrahydro-1H-benzo[d]azepine]
CS(=O)(=O)c1ccc(-c2n[nH]c3ncc(-c4ccc5c(c4)CCN(C4CCCC4)CC5)cc23)cc1F [Example 32, 3-Cyclopentyl-7-(3-(3-fluoro-4-(methylsulfonyl)phenyl)-1H-pyrazolo[3,4-b]pyridin-5-yl)-2,3,4,5-tetrahydro-1H-benzo[d]azepine]
COCCN1CCc2ccc(-c3cnc4[nH]nc(-c5ccc(C(C)(C)O)c(Cl)c5)c4c3)cc2CC1 [Example 34, 2-(2-Chloro-4-(5-(3-(2-methoxyethyl)-2,3,4,5-tetrahydro-1H-benzo[d]azepin-7-yl)-1H-pyrazolo[3,4-b]pyridin-3-yl)phenyl)propan-2-ol]
C[C@@H]1CCCN1C1CCc2ccc(-c3cnc4[nH]nc(-c5ccc(C(C)(C)O)c(Cl)c5)c4c3)cc2CC1 (stereo partly drawn) [Example 35, 2-(2-Chloro-4-(5-(7-((R)-2-methylpyrrolidin-1-yl)-6,7,8,9-tetrahydro-5H-benzo[7]annulen-2-yl)-1H-pyrazolo[3,4-b]pyridin-3-yl)phenyl)propan-2-ol]
C[C@H]1CCCN1C1CCc2ccc(-c3cnc4[nH]nc(-c5ccc(S(C)(=O)=O)cc5)c4c3)cc2CC1 (stereo partly drawn) [Example 36, 5-(7-((S)-2-Methylpyrrolidin-1-yl)-6,7,8,9-tetrahydro-5H-benzo[7]annulen-2-yl)-3-(4-(methylsulfonyl)phenyl)-1H-pyrazolo[3,4-b]pyridine]
C[C@H]1CCCN1C1CCc2ccc(-c3cnc4[nH]nc(-c5ccc(C(C)(C)O)c(Cl)c5)c4c3)cc2CC1 (stereo partly drawn) [Example 37, 2-(2-Chloro-4-(5-(7-((S)-2-methylpyrrolidin-1-yl)-6,7,8,9-tetrahydro-5H-benzo[7]annulen-2-yl)-1H-pyrazolo[3,4-b]pyridin-3-yl)phenyl)propan-2-ol]
C[C@@H]1CCCN1C1CCc2ccc(-c3cnc4[nH]nc(-c5ccc(S(C)(=O)=O)cc5)c4c3)cc2CC1 (stereo partly drawn) [Example 38, 5-(7-((R)-2-Methylpyrrolidin-1-yl)-6,7,8,9-tetrahydro-5H-benzo[7]annulen-2-yl)-3-(4-(methylsulfonyl)phenyl)-1H-pyrazolo[3,4-b]pyridine]
C[C@@H]1CCCN1C1CCc2ccc(-c3cnc4[nH]nc(-c5ccc(S(=O)(=O)C6CC6)cc5)c4c3)cc2CC1 (stereo partly drawn) [Example 39, 3-(4-(Cyclopropylsulfonyl)phenyl)-5-(7-((R)-2-methylpyrrolidin-1-yl)-6,7,8,9-tetrahydro-5H-benzo[7]annulen-2-yl)-1H-pyrazolo[3,4-b]pyridine]
O=S(=O)(c1ccc(-c2n[nH]c3ncc(-c4ccc5c(c4)CC[C@@H](N4CCCC4)CC5)cc23)cc1)C1CC1 [Example 40, (S)-3-(4-(Cyclopropylsulfonyl)phenyl)-5-(7-(pyrrolidin-1-yl)-6,7,8,9-tetrahydro-5H-benzo[7]annulen-2-yl)-1H-pyrazolo[3,4-b]pyridine]
CCS(=O)(=O)c1ccc(-c2n[nH]c3ncc(-c4ccc5c(c4)CC[C@@H](N4CCCC4)CC5)cc23)cc1 [Example 41, (S)-3-(4-(Ethylsulfonyl)phenyl)-5-(7-(pyrrolidin-1-yl)-6,7,8,9-tetrahydro-5H-benzo[7]annulen-2-yl)-1H-pyrazolo[3,4-b]pyridine]
CC(C)S(=O)(=O)c1ccc(-c2n[nH]c3ncc(-c4ccc5c(c4)CC[C@@H](N4CCCC4)CC5)cc23)cc1 [Example 42, (S)-3-(4-(Isopropylsulfonyl)phenyl)-5-(7-(pyrrolidin-1-yl)-6,7,8,9-tetrahydro-5H-benzo[7]annulen-2-yl)-1H-pyrazolo[3,4-b]pyridine]
